Results published in ChEMBL document CHEMBL1201862, “PubChem BioAssay data set” (2004).
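Five concentrations, 48 hours, 96-well plates. GI50 marks 50% less growth.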 Active and inactive are the calls of the source. Cut-off read from the data, not from the text of the source: active = GI50 up to about 1.1 µM and inactive = higher.

How the values were obtained:
Assay in all cases: growth of human tumour cells (NCI), 48 h
SK-MEL-28 = tested on: SK-MEL-28
SR = tested on: SR
HCT-116 = tested on: HCT-116
M14 = tested on: M14
NCI-H522 = tested on: NCI-H522
HCC 2998 = tested on: HCC 2998
K562 = tested on: K562
HOP-62 = tested on: HOP-62
UACC-62 = tested on: UACC-62
LOX IMVI = tested on: LOX IMVI
SK-MEL-2 = tested on: SK-MEL-2
SNB-75 = tested on: SNB-75
SF-295 = tested on: SF-295
EKVX = tested on: EKVX
CCRF-CEM = tested on: CCRF-CEM
SF-268 = tested on: SF-268
HL-60 = tested on: HL-60
MOLT-4 = tested on: MOLT-4
SK-MEL-5 = tested on: SK-MEL-5

Compound | GI50 (SK-MEL-28) | GI50 (SR) | GI50 (HCT-116) | GI50 (M14) | GI50 (NCI-H522) | GI50 (HCC 2998) | GI50 (K562) | GI50 (HOP-62) | GI50 (UACC-62) | GI50 (LOX IMVI) | GI50 (SK-MEL-2) | GI50 (SNB-75) | GI50 (SF-295) | GI50 (EKVX) | GI50 (CCRF-CEM) | GI50 (SF-268) | GI50 (HL-60) | GI50 (MOLT-4) | GI50 (SK-MEL-5)
O=c1c2ccccc2[nH]c2c(O)ccc(O)c12 | 18.8 µM (inactive) | 7.33 µM (inactive) | 20.7 µM (inactive) | 15.9 µM (inactive) | 15.1 µM (inactive) | > 100 µM (inactive) | 17.5 µM (inactive) | > 100 µM (inactive) | 16.7 µM (inactive) | 17.8 µM (inactive) | 29.4 µM (inactive) | > 10 µM (inactive) | 17.3 µM (inactive) | > 41.7 µM (inactive) | 5.58 µM (inactive) | 25.4 µM (inactive) | 2.64 µM (inactive) | 7.91 µM (inactive) | –
O=C(CCc1cc(-c2ccco2)n(-c2ccc([N+](=O)[O-])cc2[N+](=O)[O-])n1)Nc1ccccc1 | > 100 µM (inactive) | > 100 µM (inactive) | > 100 µM (inactive) | > 100 µM (inactive) | > 100 µM (inactive) | > 100 µM (inactive) | 45.5 µM (inactive) | > 100 µM (inactive) | > 100 µM (inactive) | – | > 100 µM (inactive) | > 100 µM (inactive) | > 100 µM (inactive) | > 100 µM (inactive) | 61 µM (inactive) | > 100 µM (inactive) | 49.3 µM (inactive) | 65.8 µM (inactive) | > 100 µM (inactive)
CC1(C)OP(=O)(O)C=C1Sc1ccc([N+](=O)[O-])cc1[N+](=O)[O-] | > 100 µM (inactive) | > 100 µM (inactive) | > 100 µM (inactive) | > 100 µM (inactive) | > 100 µM (inactive) | > 100 µM (inactive) | > 100 µM (inactive) | > 100 µM (inactive) | > 100 µM (inactive) | > 100 µM (inactive) | > 100 µM (inactive) | > 100 µM (inactive) | > 100 µM (inactive) | > 100 µM (inactive) | – | > 100 µM (inactive) | > 100 µM (inactive) | – | > 100 µM (inactive)
O=C1OC(c2ccccc2)=N/C1=C/NC(Cc1c[nH]cn1)C(=O)O (configuration not stated) | > 100 µM (inactive) | > 100 µM (inactive) | > 100 µM (inactive) | > 100 µM (inactive) | > 100 µM (inactive) | > 100 µM (inactive) | > 100 µM (inactive) | > 100 µM (inactive) | > 100 µM (inactive) | > 100 µM (inactive) | > 100 µM (inactive) | > 100 µM (inactive) | > 100 µM (inactive) | > 100 µM (inactive) | > 100 µM (inactive) | > 100 µM (inactive) | > 100 µM (inactive) | > 100 µM (inactive) | > 100 µM (inactive)
Cc1ccc(S(=O)(=O)N2CCN(C=S)CC2)cc1 | > 100 µM (inactive) | > 100 µM (inactive) | > 100 µM (inactive) | > 100 µM (inactive) | > 100 µM (inactive) | > 100 µM (inactive) | > 100 µM (inactive) | > 100 µM (inactive) | > 100 µM (inactive) | > 100 µM (inactive) | > 100 µM (inactive) | > 100 µM (inactive) | – | > 100 µM (inactive) | > 100 µM (inactive) | > 100 µM (inactive) | > 100 µM (inactive) | > 100 µM (inactive) | > 100 µM (inactive)
CC1=C(O)C(=O)C2C(=O)C1C(C)C2c1ccc(Cl)cc1 (configuration not stated) | > 100 µM (inactive) | > 100 µM (inactive) | – | > 100 µM (inactive) | > 100 µM (inactive) | > 100 µM (inactive) | > 100 µM (inactive) | > 100 µM (inactive) | > 100 µM (inactive) | > 100 µM (inactive) | > 100 µM (inactive) | 72.3 µM (inactive) | > 100 µM (inactive) | > 100 µM (inactive) | > 100 µM (inactive) | > 100 µM (inactive) | > 100 µM (inactive) | > 100 µM (inactive) | > 100 µM (inactive)
O=C(CO)CC(=O)C(=O)Nc1cccc(C(F)(F)F)c1 | > 100 µM (inactive) | > 100 µM (inactive) | > 100 µM (inactive) | > 100 µM (inactive) | > 100 µM (inactive) | > 100 µM (inactive) | > 100 µM (inactive) | > 100 µM (inactive) | > 100 µM (inactive) | > 100 µM (inactive) | > 100 µM (inactive) | > 100 µM (inactive) | > 100 µM (inactive) | – | – | > 100 µM (inactive) | > 100 µM (inactive) | > 100 µM (inactive) | –
O=C(CC1Sc2ccccc2NC1=O)Nc1cccc(Cl)c1 (configuration not stated) | 24 µM (inactive) | 34 µM (inactive) | 68.5 µM (inactive) | 38.3 µM (inactive) | – | 89.3 µM (inactive) | 51.8 µM (inactive) | – | 28.3 µM (inactive) | 20.3 µM (inactive) | 39 µM (inactive) | 32.4 µM (inactive) | 59.3 µM (inactive) | 22.5 µM (inactive) | 40.4 µM (inactive) | 34.9 µM (inactive) | 35.6 µM (inactive) | 15.9 µM (inactive) | 40.1 µM (inactive)
CC12N=NNC1C(=O)NC2=O (configuration not stated) | > 100 µM (inactive) | > 100 µM (inactive) | > 100 µM (inactive) | – | > 100 µM (inactive) | > 100 µM (inactive) | > 100 µM (inactive) | > 100 µM (inactive) | > 100 µM (inactive) | > 100 µM (inactive) | > 100 µM (inactive) | > 100 µM (inactive) | > 100 µM (inactive) | > 100 µM (inactive) | > 100 µM (inactive) | > 100 µM (inactive) | > 100 µM (inactive) | > 100 µM (inactive) | > 100 µM (inactive)
S=C1SCC2CCCN12 (configuration not stated) | – | > 100 µM (inactive) | > 100 µM (inactive) | > 100 µM (inactive) | > 100 µM (inactive) | > 100 µM (inactive) | > 100 µM (inactive) | > 100 µM (inactive) | > 100 µM (inactive) | > 100 µM (inactive) | > 100 µM (inactive) | > 100 µM (inactive) | > 100 µM (inactive) | – | > 100 µM (inactive) | > 100 µM (inactive) | > 100 µM (inactive) | > 100 µM (inactive) | > 100 µM (inactive)
CCN(CC)C(=O)N1CN(c2ccccc2)C2(CCN(CCCC3(c4ccc(F)cc4)OCCO3)CC2)C1=O | 13.8 µM (inactive) | 11.6 µM (inactive) | 11.7 µM (inactive) | 40.2 µM (inactive) | 13.7 µM (inactive) | 14.5 µM (inactive) | – | 4.26 µM (inactive) | 17.4 µM (inactive) | 12.7 µM (inactive) | 14.8 µM (inactive) | 19.7 µM (inactive) | 25.4 µM (inactive) | 25.9 µM (inactive) | 13.9 µM (inactive) | 20.6 µM (inactive) | 12.7 µM (inactive) | 10.4 µM (inactive) | 12.9 µM (inactive)
Cn1c(=O)cc2[nH]c3ccccc3n2c1=O | > 100 µM (inactive) | > 100 µM (inactive) | > 10 µM (inactive) | 72.9 µM (inactive) | – | 72.8 µM (inactive) | 42.1 µM (inactive) | > 100 µM (inactive) | > 100 µM (inactive) | 20.2 µM (inactive) | > 100 µM (inactive) | > 100 µM (inactive) | > 100 µM (inactive) | > 100 µM (inactive) | 41.5 µM (inactive) | > 100 µM (inactive) | > 100 µM (inactive) | > 100 µM (inactive) | > 100 µM (inactive)
COc1cccc2c1C(=O)c1c(O)c3c(c(O)c1C2=O)C[C@@](O)(C(=O)CO)CC3OC1CC(NCCOCC(OC(C)=O)OC(C)=O)C(O)C(C)O1 (some centres not stated) | < 0.01 µM (active) | < 0.01 µM (active) | – | < 0.01 µM (active) | – | < 0.01 µM (active) | < 0.01 µM (active) | 0.00382 µM (active) | 0.00498 µM (active) | 0.00598 µM (active) | < 0.01 µM (active) | < 0.01 µM (active) | 0.00973 µM (active) | < 0.01 µM (active) | 0.00766 µM (active) | < 0.01 µM (active) | < 0.01 µM (active) | < 0.01 µM (active) | < 0.01 µM (active)
CC(C)(C)OC(=O)C#CC[C@H]1CCCC1/C=C/C(O)=C1/C(=O)NC(CCCNC(=O)OC(C)(C)C)C1=O (some centres not stated) | 17.1 µM (inactive) | 26.2 µM (inactive) | 11.4 µM (inactive) | 45.7 µM (inactive) | 16.5 µM (inactive) | 42.9 µM (inactive) | 36 µM (inactive) | 45.4 µM (inactive) | 18.3 µM (inactive) | 19.8 µM (inactive) | 16.6 µM (inactive) | 32.6 µM (inactive) | 41.4 µM (inactive) | 16.3 µM (inactive) | 27.2 µM (inactive) | 23.9 µM (inactive) | 33.3 µM (inactive) | 32.1 µM (inactive) | 47.8 µM (inactive)
Cn1cnc([N+](=O)[O-])c1Sc1nc2ccccc2o1 | 5.78 µM (inactive) | 2.49 µM (inactive) | 3.58 µM (inactive) | 6.35 µM (inactive) | 1.8 µM (inactive) | 11 µM (inactive) | 2.53 µM (inactive) | 36.8 µM (inactive) | 12.4 µM (inactive) | 10.7 µM (inactive) | 28.1 µM (inactive) | 16.6 µM (inactive) | 26.3 µM (inactive) | 10.2 µM (inactive) | 3.03 µM (inactive) | 8.32 µM (inactive) | 1.51 µM (inactive) | 2.52 µM (inactive) | 13.3 µM (inactive)
